Measurements taken from patent publication US8450266B2 (Ipsen Pharma S.A.S., priority 2008, dated 2013).
Where a SMILES comes first, the peptide text is derived from it. [ ]: non-standard residue; d: D form. The star is where a group is joined. Decanoyl = CCCCCCCCCC(=O)*; Ac6c = NC1(C(=O)O)CCCCC1; Orn = NCCC[C@H](N)C(=O)O

Tests used:
[1] = Human plasma half-life assay (LC-MS); assay type: in vitro ADME; settings: incubated at 37° C., read-out: Human Plasma T½ (converted)
Outline: (§1)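 Aliquots taken from human or rat plasma at time points up to 72 h, quenched with formic acid and acetonitrile, centrifuged. Supernatant analyzed by LC-MS (ESI, positive ion, full scan) on a C8 column with a water/acetonitrile 1% formic acid gradient.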

[2] = Rat plasma half-life assay (LC-MS); assay type: in vitro ADME; settings: incubated at 37° C., read-out: Rat Plasma T½ (converted)
Outline: as §1

[3] = target: T1, human recombinant GIP receptor (Homo sapiens, UniProt P48546); assay: In vitro hGIP receptor binding assay ([125I]GIP displacement, CHO-K1 membranes)
T1 construct: expressed in transfected cells; host or cells: CHO-K1 clonal cells (membranes)
T1 sequence (P48546 22-466): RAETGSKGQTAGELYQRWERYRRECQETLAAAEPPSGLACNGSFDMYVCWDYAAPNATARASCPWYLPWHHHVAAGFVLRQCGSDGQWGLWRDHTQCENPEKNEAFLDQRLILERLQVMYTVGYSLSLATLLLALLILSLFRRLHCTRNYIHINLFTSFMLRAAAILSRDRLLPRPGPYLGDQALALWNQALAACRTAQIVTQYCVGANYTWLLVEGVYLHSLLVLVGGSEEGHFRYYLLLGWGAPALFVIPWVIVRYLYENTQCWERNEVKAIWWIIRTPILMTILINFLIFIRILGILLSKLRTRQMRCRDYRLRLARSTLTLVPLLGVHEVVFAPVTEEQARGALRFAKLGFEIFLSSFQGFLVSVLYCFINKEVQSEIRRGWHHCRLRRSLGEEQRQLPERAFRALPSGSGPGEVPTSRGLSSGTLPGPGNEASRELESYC
Source text: A. In Vitro hGIP Receptor Binding Assay

| SMILES | half-life at 0.1 mg/mL [1] [h] | half-life at 0.1 mg/mL [2] [h] | Ki [3] [nM] |
| --- | --- | --- | --- |
| CC[C@H](C)[C@H](NC(=O)[C@H](CO)NC(=O)[C@H](Cc1ccc(O)cc1)NC(=O)[C@H](CC(=O)O)NC(=O)[C@H](CO)NC(=O)C1(NC(C)=O)CCCCC1)C(=O)N[C@@H](C)C(=O)N[C@@H](CCSC)C(=O)N[C@@H](CC(=O)O)C(=O)N[C@@H](CCCCN)C(=O)N[C@H](C(=O)N[C@@H](Cc1c[nH]cn1)C(=O)N[C@@H](CCC(N)=O)C(=O)N[C@@H](CCC(N)=O)C(=O)N[C@@H](CC(=O)O)C(=O)N[C@@H](Cc1ccccc1)C(=O)N[C@H](C(=O)N[C@@H](CC(N)=O)C(=O)N[C@@H](Cc1c[nH]c2ccccc12)C(=O)N[C@@H](CC(C)C)C(=O)N[C@@H](CC(C)C)C(=O)N[C@@H](C)C(=O)N[C@@H](CCC(N)=O)C(=O)N[C@@H](CCCCN)C(=O)N[C@@H](Cc1ccc2ccccc2c1)C(=O)N[C@@H](CCCCN)C(=O)N[C@@H](CCCCN)C(=O)N[C@@H](CC(N)=O)C(=O)N[C@@H](CC(=O)O)C(=O)N[C@@H](Cc1c[nH]c2ccccc12)C(=O)N[C@@H](CCCCN)C(=O)N[C@@H](Cc1c[nH]cn1)C(=O)N[C@@H](CC(N)=O)C(=O)N[C@H](C(=O)N[C@H](C(=O)N[C@@H](CCC(N)=O)C(=O)O)[C@@H](C)O)[C@@H](C)CC)C(C)C)[C@@H](C)CC [Example 24, (Ac-A6c^7, 2Nal^31)hGIP(7-42)-OH] (HELM PEPTIDE1{[ac].[O=C(C1(N[*:1])CCCCC1)[*:2]].S.D.Y.S.I.A.M.D.K.I.H.Q.Q.D.F.V.N.W.L.L.A.Q.K.[O=C([C@H](Cc1ccc2ccccc2c1)N[*:1])[*:2]].K.K.N.D.W.K.H.N.I.T.Q}$$$$V2.0) | 26.3 | 12.2 | – |
| CCCN1C(=O)CC(SC[C@H](NC(=O)[C@H](CCCCN)NC(=O)[C@H](CCC(N)=O)NC(=O)[C@H](C)NC(=O)[C@H](CC(C)C)NC(=O)[C@H](CC(C)C)NC(=O)[C@H](Cc2c[nH]c3ccccc23)NC(=O)[C@H](CC(N)=O)NC(=O)[C@@H](NC(=O)[C@H](Cc2ccccc2)NC(=O)[C@H](CC(=O)O)NC(=O)[C@H](CCC(N)=O)NC(=O)[C@H](CCC(N)=O)NC(=O)[C@H](Cc2c[nH]cn2)NC(=O)[C@@H](NC(=O)[C@H](CCCCN)NC(=O)[C@H](CC(=O)O)NC(=O)[C@H](CCSC)NC(=O)[C@H](C)NC(=O)[C@@H](NC(=O)[C@H](CO)NC(=O)[C@H](Cc2ccc(O)cc2)NC(=O)[C@H](CC(=O)O)NC(=O)[C@H](CO)NC(=O)C2(NC(=O)[C@@H](N)Cc3ccccc3)CCCCC2)[C@@H](C)CC)[C@@H](C)CC)C(C)C)C(N)=O)C1=O (some centres unmarked) [Example 34, [A6c^7, Cys(Psu)^31]hGIP(6-31)-NH2] | 11.3 | 7.4 | – |
| CCCC[C@H](NC(=O)[C@H](C)NC(=O)[C@@H](NC(=O)[C@H](CO)NC(=O)[C@H](Cc1ccc(O)cc1)NC(=O)[C@H](CC(=O)O)NC(=O)[C@H](CO)NC(=O)C1(NC(=O)[C@@H](N)Cc2ccccc2)CCCCC1)[C@@H](C)CC)C(=O)N[C@@H](CC(=O)O)C(=O)N[C@@H](CCCCN)C(=O)N[C@H](C(=O)N[C@@H](Cc1c[nH]cn1)C(=O)N[C@@H](CCC(N)=O)C(=O)N[C@@H](CCC(N)=O)C(=O)N[C@@H](CC(=O)O)C(=O)N[C@@H](Cc1ccccc1)C(=O)N[C@H](C(=O)N[C@@H](CC(N)=O)C(=O)N[C@@H](Cc1c[nH]c2ccccc12)C(=O)N[C@@H](CC(C)C)C(=O)N[C@@H](CC(C)C)C(=O)N[C@@H](C)C(=O)N[C@@H](CCC(N)=O)C(=O)N[C@@H](CCCCN)C(N)=O)C(C)C)[C@@H](C)CC [Example 36, (A6c^7, Nle^14)hGIP(6-30)-NH2] (HELM PEPTIDE1{F.[O=C(C1(N[*:1])CCCCC1)[*:2]].S.D.Y.S.I.A.[Nle].D.K.I.H.Q.Q.D.F.V.N.W.L.L.A.Q.K.[am]}$$$$V2.0) | 21.9 | 21.6 | – |
| CCCC[C@H](NC(=O)[C@H](C)NC(=O)[C@@H](NC(=O)[C@H](CO)NC(=O)[C@H](Cc1ccc(O)cc1)NC(=O)[C@H](CC(=O)O)NC(=O)[C@H](CO)NC(=O)C1(NC(=O)[C@@H](N)Cc2ccccc2)CCCC1)[C@@H](C)CC)C(=O)N[C@@H](CC(=O)O)C(=O)N[C@@H](CCCCN)C(=O)N[C@H](C(=O)N[C@@H](Cc1c[nH]cn1)C(=O)N[C@@H](CCC(N)=O)C(=O)N[C@@H](CCC(N)=O)C(=O)N[C@@H](CC(=O)O)C(=O)N[C@@H](Cc1ccccc1)C(=O)N[C@H](C(=O)N[C@@H](CC(N)=O)C(=O)N[C@@H](Cc1c[nH]c2ccccc12)C(=O)N[C@@H](CC(C)C)C(=O)N[C@@H](CC(C)C)C(=O)N[C@@H](C)C(=O)N[C@@H](CCC(N)=O)C(=O)N[C@@H](CCCCN)C(N)=O)C(C)C)[C@@H](C)CC [Example 35, (A5c^7, Nle^14)hGIP(6-30)-NH2] (HELM PEPTIDE1{F.[O=C(C1(N[*:1])CCCC1)[*:2]].S.D.Y.S.I.A.[Nle].D.K.I.H.Q.Q.D.F.V.N.W.L.L.A.Q.K.[am]}$$$$V2.0) | 16.5 | 23 | – |
| CCCCCCCCCC(=O)NCCC[C@H](NC(=O)[C@H](CCCCN)NC(=O)[C@H](CCCCN)NC(=O)CNC(=O)[C@H](CCCCN)NC(=O)[C@H](CCC(N)=O)NC(=O)[C@H](C)NC(=O)[C@H](CC(C)C)NC(=O)[C@H](CC(C)C)NC(=O)[C@H](Cc1c[nH]c2ccccc12)NC(=O)[C@H](CC(N)=O)NC(=O)[C@@H](NC(=O)[C@H](Cc1ccccc1)NC(=O)[C@H](CC(=O)O)NC(=O)[C@H](CCC(N)=O)NC(=O)[C@H](CCC(N)=O)NC(=O)[C@H](Cc1c[nH]cn1)NC(=O)[C@@H](NC(=O)[C@H](CCCCN)NC(=O)[C@H](CC(=O)O)NC(=O)[C@H](CCSC)NC(=O)[C@H](C)NC(=O)[C@@H](NC(=O)[C@H](CO)NC(=O)[C@H](Cc1ccc(O)cc1)NC(=O)[C@H](CC(=O)O)NC(=O)[C@H](CO)NC(=O)C1(NC(=O)CCCCCCCCC)CCCCC1)[C@@H](C)CC)[C@@H](C)CC)C(C)C)C(=O)N[C@@H](CC(=O)O)C(=O)N[C@@H](Cc1c[nH]c2ccccc12)C(=O)N[C@@H](CCCCN)C(=O)N[C@@H](Cc1c[nH]cn1)C(=O)N[C@@H](CC(N)=O)C(=O)N[C@H](C(=O)N[C@H](C(=O)N[C@@H](CCC(N)=O)C(=O)O)[C@@H](C)O)[C@@H](C)CC [Example 21, [CH3-(CH2)8-C(O)-A6c^7, Orn^34(N-C(O)-(CH2)8-CH3)]hGIP(7-42)-OH] (Decanoyl-[Ac6c]SDYSIAMDKIHQQDFVNWLLAQKGKK[Orn](Decanoyl)DWKHNITQ-OH) | 8 | > 72 | 163 |
